This note sets out measurements from patent US11352315B2, “Compositions and methods comprising a triaryl polyamine” (Curza Global, LLC, priority 2017, dated 2022).

Values after ≈ are worked out from the molar mass of the structure shown.

The test system of assay [1] is A. baumannii ATCC BAA 1605. In words: MIC testing against the planktonic phenotype (Example 5). Format: cell-based. The following applies: Acinetobacter baumannii, BAA1605, 24 hr at 37° C.
Experimental: (§8) The isolate was maintained on Columbia blood agar and passaged as necessary with overnight incubation at 37° C.
Minimum inhibitory concentration (MIC) testing against the planktonic phenotype was performed first. To do so, a modified protocol of the Clinical and Laboratory Standards Institute (CLSI) guideline M100 was used. In short, using a fresh overnight culture of bacteria, a 0.5 McFarland standard was made in PBS using a nephelometer, then diluted to achieve a concentration of ˜7.5×10^5 CFU/mL. A 96-well plate was set up such that a final volume of 100 μL was present in each well. Column 1 served as the negative control of growth (antibiotic only without bacteria added) and Column 11 served as the positive control of growth (bacteria only, no antibiotic).
Into columns 2-11, 50 μL of CAMHB were added to each well. […] The solution was mixed, then 50 μL were removed and added to wells of column 3. This 1:2 dilution process was continued through column 10. Lastly, into each well of columns 2-11, 50 μL of the prepared bacterial solution were added. […] The 96-well plate was covered with adhesive film and incubated 24 hr at 37° C. The concentration of antibiotic that inhibited pellet formation or turbidity was considered the MIC.
Assay [2] deals with MRSA. In words: EBEC analysis, high number biofilms on PEEK membranes. Format: cell-based, Staphylococcus aureus. Particulars: 24 hours. On the procedure:
(§1) To determine the efficacy of polyamine compounds against high number biofilms, biofilms were grown on the surface of polyetheretherketone (PEEK) membranes using a membrane biofilm reactor. This reactor was similar to the CDC biofilm reactor, but rather than growing biofilms on coupon surfaces, the reactor was modified to hold PEEK membranes. In short, to grow biofilms within this system, 500 mL of brain heart infusion (BHI) broth were inoculated with 1 mL of a 0.5 McFarland. The reactor was placed on a hot plate set at 34° C. and the bacteria were grown under batch conditions for 24 hours.
(§2) A solution of 10% BHI was then flowed through the reactor at a rate of 6.94 mL/min for an additional 24 hours. PEEK membranes were then removed and placed into 2 mL of CAMHB that contained a desired concentration of polyamine compound or antibiotic. The EBEC was defined as the concentration of antimicrobial required to reduce a biofilm from approximately 10^9 CFU/PEEK membrane to approximately 10^2 CFU/PEEK membrane in a 24-hour period.

Assay [3] has as its system A. baumannii ATCC BAA 1605 biofilms. As to the kind of experiment: Biofilm efficacy in CAMHB broth, CDC biofilm reactor (Example 5). The assay is classed as cell-based, Acinetobacter baumannii. Particulars: 24 hr.
Experimental: as §8
Biofilms were grown on polycarbonate coupons in a CDC biofilm reactor following the manufacturer's recommendation. Once assembled and autoclaved, the reactor was inoculated. To do so, a fresh overnight culture of A. baumannii was used to make a 0.5 McFarland standard of the bacterial isolate (˜5×10^7 CFU/mL). One mL of the 0.5 McFarland solution was inoculated into 500 mL of BHI in the CDC biofilm reactor. The reactor was placed on a hot plate set at 34° C. and a baffle rotation of 130 rpm for 24 hr. After 24 hr batch growth, a continuous flow of 10% BHI was flowed through the reactor at ˜6.9 mL/min for an additional 168 hr (7 days).
A 100 μL aliquot of broth was removed and plated using a 10-fold dilution series in order to quantify the CFU/coupon that remained. Testing was performed with n=3 repeats per concentration. A baseline of growth was determined by quantifying n=3 coupons/reactor immediately following growth.
Assay [4] has as its system A. baumannii. In words: EBEC analysis, high number biofilms on PEEK membranes. The assay is classed as cell-based, Acinetobacter baumannii. Particulars: 24 hours. On the procedure: as §1, §2
Assay [5] has as its system A. baumannii. In words: Wound healing study, porcine excision wound model (Example 3). Format: in vivo, Acinetobacter baumannii. The following applies: for CFU/g Tissue: necropsy at 28 days.
Experimental: An IACUC-approved in vivo analysis utilized an excision wound model in swine. Up to 32 partial thickness wounds were created/animal using a 1 cm biopsy punch (FIG. 1A). Wounds were inoculated with ^˜1×10^8 colony forming units (CFU) of A. baumannii in the planktonic or biofilm phenotype. Well-established biofilms were grown on the surface of bio-absorbable collagen in a modified CDC biofilm reactor for 8 days (FIG. 1B). An n=8 wounds were used for each treatment group.
For the treatment groups, infection was allowed to establish in each wound for 5 days after which time treatment with an antimicrobial began. […] In a separate pig, wounds were inoculated as above and a combination of colistin/imipenem (2.5 mg/each) was administered IV for 14 days for comparison to the current clinical standard of care for A. baumannii. […] Swine were monitored for 28 days. Wound size was measured daily. Culture swabs were collected regularly. At the time of necropsy, a 5 mm biopsy punch was used to collect tissue and calculate CFU/g using standard microbiological procedure. ANOVA analysis was used to compare differences in data with alpha 0.05.
For assay [6], the system named is MRSA. In words: MIC analysis. Format: cell-based. The following applies: Staphylococcus aureus, 24 hours. On the procedure: (§3) A clinical strain of MRSA, isolated from a patient who underwent arthroscopic knee surgery and characterized by ARUP Laboratories, Salt Lake City, Utah, was used for this study in addition to Pseudomonas aeruginosa ATCC 27853 and Alcanivorax borkumensis ATCC 700651. P. aeruginosa was resuspended in BHI broth, grown overnight at 37° C. and transferred to fresh BHI with 30% glycerol for storage at −80° C. The MRSA isolate was likewise stored in BHI with 30% glycerol at −80° C. […] Before performing MIC analysis and biofilm experiments, the frozen stocks of MRSA and P. aeruginosa were streaked onto Columbia blood agar plates and grown overnight at 37° C. A. borkumensis ATCC 700651 was resuspended from a lyophilized pellet into marine broth, grown overnight at 30° C. and passaged on marine agar plates prior to experimentation.
(§4) To determine the MIC of polyamine compounds, the protocol described herein was used.
(§5) In brief, a 0.5 McFarland of each bacterial isolate was made. A 0.5 McFarland is a measure of turbidity in a liquid sample that contains approximately 1×10^^8 CFU/mL. The 0.5 McFarland standard was diluted in cation adjusted Mueller Hinton Broth (CAMHB), and 50 μL of broth were added to a well of a 96-well plate. In addition, 50 μL of CAMHB that contained a desired concentration of antimicrobial were also added to the well for a final volume of 100 μL and a final concentration of approximately 5×10^4 CFU/well (which equated to approximately 5×10^5 CFU/mL). Each well contained a desired amount of polyamine compound in order to experimentally determine the MIC. Each 96-well plate was incubated at 37° C. for 24 hours. The contents of each well were plated on tryptic soy agar (TSA). TSA plates were incubated for 37° C. for 24 hours after which the number of CFU were counted and used to calculate the CFU/mL that remained after exposure to varying concentrations of compound. This procedure was repeated n=8 times for each concentration of antimicrobial.

The test system of assay [7] is P. aeruginosa. In words: MIC analysis. Particulars: Pseudomonas aeruginosa, 24 hours. Format: cell-based. As to the method: as §3, §4, §5
Assay [8] deals with A. baumannii. As to the kind of experiment: In vivo efficacy, porcine excision wound model (Example 6). Also on record: species or system Acinetobacter baumannii. The following applies: for Last Day that A. baumannii was Detected in At Least One Wound by Culture Swab / Log10 Transformed CFU/g Tissue at Necropsy (Day 28) / Last Day that A. baumannii was Detected in At Least One Wound: pig.
From the text: Four Yorkeshire pigs with weight in the range of approximately 40-50 kg were quarantined for a minimum of 7 days. Positive reinforcement (Swedish Fish®, marshmallows, Snickers® bars, fruit and/or other treats) was provided once daily to help the pigs become accustom to having their back manipulated—e.g., a back scratch with a soft brush—by a research team member. A custom-fit jacket was also placed on pigs during the acclimation period to allow them to become aware of the covering that would be on their body.
The night before a surgical procedure was to be performed, pigs were fasted. To perform surgery, pigs were anesthetized initially with a combination of tiletamine-zolazepam (Telazol®; 4.4 mg/kg), Ketamine (2.2 mg/kg) and Xylazine (2.2 mg/kg). Pigs were intubated, given isoflurane inhalant at 0.5-5.0%, transported to a surgical suite, placed in sternal recumbency and clipped/razor-shaved of hair in the region where excision wounds would be created. Pigs were rotated to dorsal recumbency and the jugular vein area was sterilely prepped using alternating betadine/isopropyl alcohol. Once prepped, the site was sterilely draped and a VAP was implanted. To do so, a ventral midline incision was made to isolate the jugular vein. A catheter was placed in the vein and secured. A second incision was made on the dorsal side of the neck and a tunnel created along the subcutaneous space from the second incision to the jugular vein. The catheter was passed through the tunnel. A VAP was anchored subdermally in the dorsal neck space with non-absorbable suture (e.g., Proline). The catheter was connected to the VAP and secured in the jugular vein. Both incision sites were closed using absorbable suture (e.g., Vicryl).
With a VAP in place, a pig was rotated to sternal recumbency. The back was sterilely prepped for surgery, then draped. Using a 1 cm biopsy punch, excision wounds were created with a separation of approximately 2 cm between each wound. Wounds were organized into three or four sections with n=8 wounds/section (see FIG. 5). To reduce bleeding during wound creation, wound beds were treated with μL quantities of dilute epinephrine (1 mg/mL) as needed by the surgeon. Sterile saline-soaked gauze sponges were placed on excised wounds to maintain moisture as additional wounds were created. Once created, wounds were inoculated with bacteria (with the exception of negative control wounds) in either the planktonic or biofilm phenotype (see FIG. 5).
For wounds inoculated with planktonic bacteria, 2-3 colonies from a fresh overnight culture of A. baumannii were adjusted to a turbidity of 10% (˜1×10^9 CFU/mL) in sterile PBS using a nephelometer. One hundred L were pipetted into wound beds on the left flank of an animal (see FIG. 5).
Biofilm inoculation was performed by first growing biofilms on absorbable collagen for a total of 192 hrs (8 days) as described and transported to the OR in approved containers. Once the excision wounds were created, biofilm-containing collagen coupons were aseptically placed into wounds (one coupon/wound) on the right flank of an animal (see FIG. 1). […] Following inoculation, tincture of benzoin was applied to the border of each wound section to help maintain bandage adherence. Wounds were bandaged with a non-stick Telfa pad and Tegaderm. A custom jacket was also placed to further protect bandaging. Pigs were recovered and allowed to eat and drink ad libitum.
All wounds were reinoculated with planktonic or biofilm bacteria once daily for 3 days following the surgical procedure (total of 4 inoculations). […] To perform the reinoculations, planktonic bacteria were made fresh each day.

Assay [9] relates to A. baumannii. As to the kind of experiment: MIC analysis. Format: cell-based. The following applies: Acinetobacter baumannii, 24 hours. As to the method: as §4, §5
For assay [10], the system named is MRSA. In words: MBEC analysis, MBEC Inoculation Tray (column headed MBC). The assay is classed as cell-based. Particulars: Staphylococcus aureus, 24 hours. The text has this: (§6) To determine the MBEC of each polyamine compound, the MBEC Inoculation Tray by Innovotech, formerly known as the Calgary biofilm device, was used. Within this device, biofilms grow on the surface of polystyrene pegs, 96 of which are attached to a lid. These pegs are inserted into a flat bottom 96-well plate. In this instance, the MBEC of a molecule was defined as the concentration of compound (in μg/mL) required to reduce 10^5 or 10^6 CFU/peg (biofilm levels varied by isolate) to 10^2 CFU/peg in a 24-hour period.
(§7) Following the manufacturer's guidelines, biofilms were grown on the surface of each peg by first making a 0.5 McFarland of each isolate. The 0.5 McFarland was diluted 1:100 in CAMHB. Into each well of a flat bottom 96-well plate, 150 μL of broth were pipetted. The plate was shaken at 100 rpm for 24 hours (P. aeruginosa and A. baumannii) or 48 hours (MRSA). The pegs were then placed into a separate flat bottom 96-well plate for 10 seconds with 200 μL of phosphate buffered saline (PBS) in each well to remove nonadherent cells. The lid was then placed into a 96-well plate that contained varying concentrations of antimicrobial with 200 μL per well. The plate was incubated for 24 hours at 37° C. after which time 100 μL of broth were plated on TSA. TSA plates were incubated 24 hours at 37° C. and the number of CFU counted to calculate the CFU/peg. In this instance, the MBEC was defined as the concentration of antimicrobial required to reduce 10^5 or 10^6 CFU/peg to 10^2 CFU/peg in a 24 hour period.

For assay [11], the system named is P. aeruginosa. Described as above. Format: cell-based. The following applies: Pseudomonas aeruginosa, 24 hours.
From the text: as §6, §7

For assay [12], the system named is A. baumannii. The assay is described as above. Format: cell-based. The following applies: Acinetobacter baumannii, 24 hours.
From the text: as §6, §7

In assay [13] the test system is P. aeruginosa. In words: EBEC analysis, high number biofilms on PEEK membranes. Format: cell-based, Pseudomonas aeruginosa. The following applies: 24 hours. As to the method: as §1, §2
Setting [14] is: debrided wounds, biofilm phenotype.
The mark [15] stands for this setting: debrided wounds, planktonic phenotype.
[16] abbreviates: undebrided wounds, biofilm phenotype.
The mark [17] stands for this setting: undebrided wounds, planktonic phenotype.

In general, MIC refers to the smallest concentration in the dilution series that meets the test's criterion for growth inhibition. Read a high MIC as weaker potency. As a reminder, the MBC is the lowest tested concentration that kills the bacteria rather than only halting them. Low values mean more potent killing, high ones less potent killing. Consider `CCC(CC)CNCCCNCCCNCc1ccc(-c2cc(-c3ccc(CNCCCNCCCNCC(CC)CC)cc3)cc(C(C)(C)C)c2)cc1` [CZ-1-179, N^1,N^1′-((5′-(tert-butyl)-[1,1′:3′,1″-terphenyl]-4,4″-diyl)bis(methylene))bis(N^3-(3-((2-ethylbutyl)amino)propyl)propane-1,3-diamine)], for which the MIC in [1] came to 2 µg/mL (≈ 2.7 µM); in the assay on MRSA [6], 0.5 µg/mL (≈ 0.675 µM); against P. aeruginosa [7], 4 µg/mL (≈ 5.4 µM); in the assay on A. baumannii [9] it was 2 µg/mL (≈ 2.7 µM). Besides, the EBEC with MRSA [2] turned out to be 250 µg/mL; in the assay with A. baumannii [4], 500 µg/mL. Also, the figures for the CFU/coupon remaining in assay [3] (0.00125% (12.5 μg/mL)) and in [3] ([…] (25 μg/mL)) were ~9.2×10^5 CFU/coupon and ~4.8×10^3 CFU/coupon, respectively. Moreover, the “log10 reduction of biofilm” value is on record as approximately 2 log10 in [3] (0.00125% (12.5 μg/mL)) and approximately 4 log10 in [3] ([…] (25 μg/mL)). For the same compound, the eradication of biofilms entry in [3] (concentrations from 2% (20 mg/mL) down to 0.005% (50 μg/mL), polycarbonate coupons) is “full eradication of biofilms”. Also, the “CFU/g Tissue” value in the assay with A. baumannii [5] (swine wounds inoculated with biofilm bacteria) and with A. baumannii [5] (swine wounds inoculated with planktonic bacteria) was 0.00 CFU/g Tissue throughout. Also, the “speed of eradication of A. baumannii” value with A. baumannii [5] (swine wounds, topical) is “faster than SSD”. For the same compound, the “Day after which A. baumannii was no longer detected by culture” value with A. baumannii [8] (Pig 2 (topical agents only)) came to 6 days. The “A. baumannii by culture on Day 6” value in the assay on A. baumannii [8] (Pig 4 (IV+topical products)) is listed as “none of the wounds”. Moreover, in the assay with A. baumannii [8] (Pig 4 (IV+topical products)), the “Day on which healing was obvious” value was not above 8 days. For the same compound, the “Day on which signs of infection resolved” value in the assay on A. baumannii [8] (Pig 4 (IV+topical products)) was not above 6 days. Also, the “Day on which wound contraction was notable” value is not above 7 days with A. baumannii [8] (Pig 4 (IV+topical products), biofilm wounds) and not above 7 days in the assay with A. baumannii [8] (Pig 4 (IV+topical products), planktonic wounds). For the same compound, the reduction of bioburden entry in the assay with A. baumannii [8] (Pig 4, in combination with IV antibiotics) is given as “reduced completely within two weeks”. Further, in the assay with A. baumannii [8] (pig wounds), the “days sooner signs of infection cleared than the host alone” value fell in the range of 3 to 4 days. For the same compound, the “Last Day that A. baumannii was Detected in At Least One Wound by Culture Swab” value in the assay with A. baumannii [8] (setting [14]) and in the assay on A. baumannii [8] (setting [15]) was 5 each time. In addition, the “Log10 Transformed CFU/g Tissue at Necropsy (Day 28)” value in the assay on A. baumannii [8] (setting [14]), in the assay with A. baumannii [8] (setting [15]), with A. baumannii [8] (setting [16]) and in the assay on A. baumannii [8] (setting [17]) was 0 throughout. Further, the “Last Day that A. baumannii was Detected in At Least One Wound” value with A. baumannii [8] (setting [16]) and with A. baumannii [8] (setting [17]) was 5 each time. Also, the MBC was determined as 1 µg/mL (≈ 1.35 µM) in the assay on MRSA [10], 4 µg/mL (≈ 5.4 µM) with P. aeruginosa [11] and 4 µg/mL (≈ 5.4 µM) against A. baumannii [12].

On to `CC(C)CCNCCCNCCCNCc1cccc(-c2cc(-c3cccc(CNCCCNCCCNCCC(C)C)c3)cc(C(C)(C)C)c2)c1` [CZ-1-182, N^1,N^1′-((5′-(tert-butyl)-[1,1′:3′,1″-terphenyl]-3,3″-diyl)bis(methylene))bis(N^3-(3-(isopentylamino)propyl)propane-1,3-diamine)], for which the EBEC is 100 µg/mL in the assay on MRSA [2], 300 µg/mL in the assay with A. baumannii [4] and 150 µg/mL in the assay on P. aeruginosa [13]. The MIC in the assay with MRSA [6] was 0.25 µg/mL (≈ 0.351 µM); in the assay on P. aeruginosa [7], 4 µg/mL (≈ 5.61 µM); in the assay with A. baumannii [9], 32 µg/mL (≈ 44.9 µM).
